Experimental data: ChEMBL document CHEMBL5360558, “Molecular design, synthesis and anticancer activity of new thiopyrano[2,3-d]thiazoles based on 5-hydroxy-1,4-naphthoquinone (juglone)” (Eur J Med Chem, 2023)
Calls of active or inactive are those of the source. The calls are words filed in the database; no cut-off is given here.

Legend:
SK-MEL-2 [1] = experiment: Growth inhibition against human SK-MEL-2 cells assessed as total growth inhibitory concentration incubated for 48 hrs by sulforhodamine B spectrophotometric assay; assay type: functional
CCRF-CEM [2] = experiment: Induction of cell cycle arrest in human CCRF-CEM cells assessed as accumulation of cells at G0/G1 phase at 4.14 uM incubated for 24 hrs by propidium iodide staining based flow cytometry analysis (reference value: 38.68 +/- 0.75%); assay type: functional
SNB-75 [3] = experiment: Growth inhibition against human SNB-75 cells assessed as total growth inhibitory concentration incubated for 48 hrs by sulforhodamine B spectrophotometric assay; assay type: functional
[4] = Acute toxicity in C57BL/6 mouse assessed as ratio of lung weight to body weight at 20 mg/kg,ip administration and observed after 22 days (reference value: 0.8 +/- 0.09); assay type: organism-based; conditions: in vivo, 528 h, time 22 day
KM12 = experiment: Growth inhibition against human KM12 cells assessed as total growth inhibitory concentration incubated for 48 hrs by sulforhodamine B spectrophotometric assay; assay type: functional
SK-MEL-2 [5] = experiment: Growth inhibition against human SK-MEL-2 cells assessed as lethal concentration incubated for 48 hrs by sulforhodamine B spectrophotometric assay; assay type: functional; conditions: read-out: LC50 (the source's name)
[6] = Acute toxicity in C57BL/6 mouse assessed as lymphocyte count at 20 mg/kg,ip administration and observed after 22 days; assay type: organism-based; conditions: in vivo, 528 h, time 22 day
HOP-62 [7] = experiment: Growth inhibition of human HOP-62 cells incubated for 48 hrs by sulforhodamine B spectrophotometric assay; assay type: functional
MDA-MB-468 = experiment: Growth inhibition of human MDA-MB-468 cells incubated for 48 hrs by sulforhodamine B spectrophotometric assay; assay type: functional
MDA-MB-435 = experiment: Growth inhibition against human MDA-MB-435 cells assessed as total growth inhibitory concentration incubated for 48 hrs by sulforhodamine B spectrophotometric assay; assay type: functional
KB 3-1 [8] = experiment: Induction of apoptosis in human KB 3-1 cells assessed as increase in BIP protein expression at 0.5 to 5 uM incubated for 3 hrs by Western blotting assay; assay type: functional, cell-based; conditions: dose 0.5-5 µM
SK-MEL-2 [9] = experiment: Growth inhibition of human SK-MEL-2 cells incubated for 48 hrs by sulforhodamine B spectrophotometric assay; assay type: functional
MOLT-4 [10] = experiment: Growth inhibition of human MOLT-4 cells incubated for 48 hrs by sulforhodamine B spectrophotometric assay; assay type: functional
T47D [11] = experiment: Growth inhibition against human T47D cells assessed as total growth inhibitory concentration incubated for 48 hrs by sulforhodamine B spectrophotometric assay; assay type: functional
SNB-19 [12] = experiment: Growth inhibition against human SNB-19 cells assessed as lethal concentration incubated for 48 hrs by sulforhodamine B spectrophotometric assay; assay type: functional; conditions: read-out: LC50 (the source's name)
CCRF-CEM [13] = experiment: Induction of cell cycle arrest in human CCRF-CEM cells assessed as accumulation of cells at G0/G1 phase at 20.7 uM incubated for 24 hrs by propidium iodide staining based flow cytometry analysis (reference value: 38.68 +/- 0.75%); assay type: functional
Malme-3M [14] = experiment: Growth inhibition of human Malme-3M cells incubated for 48 hrs by sulforhodamine B spectrophotometric assay; assay type: functional
RXF 393 [15] = experiment: Growth inhibition of human RXF 393 cells incubated for 48 hrs by sulforhodamine B spectrophotometric assay; assay type: functional
CCRF-CEM [16] = experiment: Induction of cell cycle arrest in human CCRF-CEM cells assessed as accumulation of cells at sub-G1 phase at 4.14 uM incubated for 24 hrs by propidium iodide staining based flow cytometry analysis (reference value: 2.36 +/- 0.049%); assay type: functional
SK-MEL-5 = experiment: Growth inhibition against human SK-MEL-5 cells assessed as lethal concentration incubated for 48 hrs by sulforhodamine B spectrophotometric assay; assay type: functional; conditions: read-out: LC50 (the source's name)
HT-29 = experiment: Growth inhibition against human HT-29 cells assessed as lethal concentration incubated for 48 hrs by sulforhodamine B spectrophotometric assay; assay type: functional; conditions: read-out: LC50 (the source's name)
HOP-62 [17] = experiment: Growth inhibition against human HOP-62 cells assessed as total growth inhibitory concentration incubated for 48 hrs by sulforhodamine B spectrophotometric assay; assay type: functional
[18] = GSH reactivity of compound at pH 7.4 phosphate buffer assessed as GSH-adduct formation at 1 mM incubated for 1 hr by spectrophotometric analysis; assay type: physicochemical; conditions: pH 7.4, 1 h, 1000 µM
RXF 393 [19] = experiment: Growth inhibition against human RXF 393 cells assessed as total growth inhibitory concentration incubated for 48 hrs by sulforhodamine B spectrophotometric assay; assay type: functional
NCI-H522 = experiment: Growth inhibition against human NCI-H522 cells assessed as lethal concentration incubated for 48 hrs by sulforhodamine B spectrophotometric assay; assay type: functional; conditions: read-out: LC50 (the source's name)
HOP-62 [20] = experiment: Growth inhibition against human HOP-62 cells assessed as lethal concentration incubated for 48 hrs by sulforhodamine B spectrophotometric assay; assay type: functional; conditions: read-out: LC50 (the source's name)
MDA-MB-231 [21] = experiment: Induction of apoptosis in human MDA-MB-231 cells assessed as increase in caspase-9 level at 5 uM incubated for 24 hrs by flow cytometry analysis; assay type: functional
Malme-3M [22] = experiment: Anticancer activity against human Malme-3M cells assessed as cell growth at 10 uM incubated for 48 hrs by sulforhodamine B assay; assay type: functional; conditions: read-out: Activity
MOLT-4 [23] = experiment: Growth inhibition against human MOLT-4 cells assessed as lethal concentration incubated for 48 hrs by sulforhodamine B spectrophotometric assay; assay type: functional; conditions: read-out: LC50 (the source's name)
NCI-H460 = experiment: Growth inhibition against human NCI-H460 cells assessed as lethal concentration incubated for 48 hrs by sulforhodamine B spectrophotometric assay; assay type: functional; conditions: read-out: LC50 (the source's name)
MDA-MB-231 [24] = experiment: Growth inhibition of human MDA-MB-231 cells incubated for 48 hrs by sulforhodamine B spectrophotometric assay; assay type: functional
KB 3-1 [25] = experiment: Induction of apoptosis in human KB 3-1 cells assessed as increase in BIP protein expression incubated for 24 hrs by Western blotting assay; assay type: functional, cell-based
K562 = experiment: Growth inhibition against human K562 cells assessed as total growth inhibitory concentration incubated for 48 hrs by sulforhodamine B spectrophotometric assay; assay type: functional
[26] = Acute toxicity in C57BL/6 mouse assessed as change in red blood cells at 20 mg/kg,ip administration observed after 22 days; assay type: organism-based; conditions: in vivo, 528 h, time 22 day
SNB-19 [27] = experiment: Growth inhibition of human SNB-19 cells incubated for 48 hrs by sulforhodamine B spectrophotometric assay; assay type: functional
T47D [28] = experiment: Growth inhibition against human T47D cells assessed as lethal concentration incubated for 48 hrs by sulforhodamine B spectrophotometric assay; assay type: functional; conditions: read-out: LC50 (the source's name)
SNB-75 [29] = experiment: Growth inhibition against human SNB-75 cells assessed as lethal concentration incubated for 48 hrs by sulforhodamine B spectrophotometric assay; assay type: functional; conditions: read-out: LC50 (the source's name)
SK-OV-3 = experiment: Growth inhibition of human SK-OV-3 cells incubated for 48 hrs by sulforhodamine B spectrophotometric assay; assay type: functional
MDA-MB-231 [30] = experiment: Growth inhibition against human MDA-MB-231 cells assessed as total growth inhibitory concentration incubated for 48 hrs by sulforhodamine B spectrophotometric assay; assay type: functional
U-251 = experiment: Growth inhibition against human U-251 cells assessed as lethal concentration incubated for 48 hrs by sulforhodamine B spectrophotometric assay; assay type: functional; conditions: read-out: LC50 (the source's name)
A549 = experiment: Growth inhibition of human A549 cells incubated for 48 hrs by sulforhodamine B spectrophotometric assay; assay type: functional
HOP-92 = experiment: Growth inhibition of human HOP-92 cells incubated for 48 hrs by sulforhodamine B spectrophotometric assay; assay type: functional
LOX IMVI = experiment: Growth inhibition against human LOX IMVI cells assessed as total growth inhibitory concentration incubated for 48 hrs by sulforhodamine B spectrophotometric assay; assay type: functional
BT-549 = experiment: Growth inhibition of human BT-549 cells incubated for 48 hrs by sulforhodamine B spectrophotometric assay; assay type: functional

Question: With O=C1C2=C(C(=O)c3c(O)cccc31)C(c1ccco1)c1sc(=O)[nH]c1S2 (centres undefined) as the compound, how does the TGI (SK-MEL-2 [1]) read?
Answer: 16.4 µM

Question: And the Activity (CCRF-CEM [2])?
Answer: 34.34%

Question: And the TGI (SNB-75 [3])?
Answer: 7.61 µM

Question: What about the Ratio [4] of the same compound?
Answer: 0.82

Question: And the TGI (KM12)?
Answer: 31.3 µM

Question: What about the CC50 (SK-MEL-2 [5]) of the same compound?
Answer: 52.9 µM

Question: And the Activity [6]?
Answer: 67.05%

Question: What about the GI50 (HOP-62 [7]) of the same compound?
Answer: 2.04 µM

Question: What about the GI50 (MDA-MB-468) of the same compound?
Answer: 2.01 µM

Question: What about the TGI (MDA-MB-435) of the same compound?
Answer: 2.47 µM

Question: What about the Activity (KB 3-1 [8]) of the same compound?
Answer: inactive

Question: And the GI50 (SK-MEL-2 [9])?
Answer: 3.51 µM

Question: And the GI50 (MOLT-4 [10])?
Answer: 2.71 µM

Question: What about the TGI (T47D [11]) of the same compound?
Answer: 13 µM

Question: And the CC50 (SNB-19 [12])?
Answer: 26.1 µM

Question: And the Activity (CCRF-CEM [13])?
Answer: 35.58%

Question: What about the GI50 (Malme-3M [14]) of the same compound?
Answer: 0.75 µM

Question: And the GI50 (RXF 393 [15])?
Answer: 2.02 µM

Question: What about the Activity (CCRF-CEM [16]) of the same compound?
Answer: 5.02%

Question: And the CC50 (SK-MEL-5)?
Answer: 5.68 µM

Question: And the CC50 (HT-29)?
Answer: > 100 µM

Question: What about the TGI (HOP-62 [17]) of the same compound?
Answer: 3.74 µM

Question: What about the Activity [18] of the same compound?
Answer: Active

Question: And the TGI (RXF 393 [19])?
Answer: 5.57 µM

Question: What about the CC50 (NCI-H522) of the same compound?
Answer: 26.4 µM

Question: And the CC50 (HOP-62 [20])?
Answer: 6.86 µM

Question: And the Activity (MDA-MB-231 [21])?
Answer: 15%

Question: What about the growth at 10 µM (Malme-3M [22]) of the same compound?
Answer: -92.3%

Question: And the CC50 (MOLT-4 [23])?
Answer: > 100 µM

Question: What about the CC50 (NCI-H460) of the same compound?
Answer: 7.84 µM

Question: What about the GI50 (MDA-MB-231 [24]) of the same compound?
Answer: 2.73 µM

Question: And the Activity (KB 3-1 [25])?
Answer: Dose-Dependent Effect

Question: What about the TGI (K562) of the same compound?
Answer: > 100 µM

Question: And the Activity [26]?
Answer: Non-Toxic

Question: What about the GI50 (SNB-19 [27]) of the same compound?
Answer: 2.6 µM

Question: And the CC50 (T47D [28])?
Answer: > 100 µM

Question: What about the CC50 (SNB-75 [29]) of the same compound?
Answer: 25.8 µM

Question: What about the GI50 (SK-OV-3) of the same compound?
Answer: 15.5 µM

Question: And the TGI (MDA-MB-231 [30])?
Answer: 9.08 µM

Question: And the CC50 (U-251)?
Answer: 35.7 µM

Question: What about the GI50 (A549) of the same compound?
Answer: 1.78 µM

Question: What about the GI50 (HOP-92) of the same compound?
Answer: 3.15 µM

Question: And the TGI (LOX IMVI)?
Answer: 7.55 µM

Question: What about the GI50 (BT-549) of the same compound?
Answer: 1.64 µM
